Reference: patent US20170002393A1, “COMPOSITIONS AND METHODS FOR ANTIBODY PRODUCTION” (IMMUNOGEN, INC., priority 2013, published 2017)
Values after ≈ are worked out from the molar mass of the structure shown. Values belong to the compound of their own block, whether it stands above or below them.

Columns and labels:
humanized FOLR1 IgG1 = test: Antibody fragmentation in HCCF with 20% (v/v) microfluidized CHO cells (non-reducing SDS-Protein Lab Chip); format: biochemical; details: 1 mM of each additive, 6 h; no additive control 78%
physchem = details: thermodynamic from solid
[1] = 50 mM potassium phosphate buffer, pH adjusted to 7.1
[2] = test system: recombinant humanized IgG1 antibody; test: Antibody fragmentation in HCCF kept under nitrogen, air or oxygen with or without CDME (non-reducing SDS-Protein Lab Chip); format: biochemical
Experimental: A CHO cell culture producing recombinant humanized IgG1 antibody was subjected to centrifugation and the resulting harvest cell culture fluid (HCCF) was frozen at −80° C. […] At various time points, samples were quenched with N-ethylmaleimide (NEM), purified using immobilized Protein A, and analyzed for fragments using non-reducing SDS-Protein Lab Chip electrophoresis. […] In contrast, the sample overlayed with air became less fragmented with time, reaching a plateau of about 25% fragmentation at 20 hours.

[3] = test system: Humanized anti-folate receptor 1 (FOLR1) IgG1; test: Thiol per antibody (DTNB/Ellman's) after incubating immobilized antibody with damaged CHO cell supernatant; format: biochemical; details: 0.05 mM agent, 2.2 hours; antibody eluted from Protein A bead, neutralized to pH 7
Experimental: For all of the examples described below, cell damage was simulated by multiple freeze-thaw cycles of cells, by addition of RIPA buffer (50 mM Tris-HCl, pH 7.4, 1% NP-40, 0.5% sodium deoxycholate, 0.1% sodium dodecylsulfate), or by using microfluidizer. This damaged cell supernatant or lysate was then incubated with a buffered solution containing antibody with or without the anti-reduction agent being tested, following which the extent of the antibody-disulfide reduction was measured using Ellman's assay for thiol (P. W. Riddles, R. L. Blakeley, and B. Zerner, Methods Enzymol., 91, 49-60, 1983) or by non-reducing SDS protein LabChip analysis. The total thiol level present in the mixture of damaged cell supernatant/lysate was measured initially. […]
The concentration of thiol in the suspension of damaged CHO cells was measured as 4 mM using DTNB ((5,5′-dithiobis(2-nitrobenzoic acid); Ellman's reagent). Humanized anti-folate receptor 1 (FOLR1) IgG1 (1 mg) was immobilized on 0.05 ml of Protein A bead (RepliGen) and then treated with pre-mixed 0.5 ml PBS and 0.1 ml damaged CHO cell supernatant. The concentration of thiol in this mixture was 0.67 mM. […]

Structure (SMILES): O=C1c2ccccc2C(=O)c2cc(S(=O)(=O)O)ccc21 [AQS, anthraquinone-2-sulfonic acid]
- fragmentation compared to no additive control (humanized FOLR1 IgG1): much lower fragmentations

Structure (SMILES): CN(C)c1ccc2nc3ccc(N(C)C)cc3[s+]c2c1 [methylene blue, Methylene blue]
- thiol per antibody of eluted, neutralized antibody [3]: 0.002 thiol per antibody

Structure (SMILES): O=O [oxygen]
- protection against fragmentation ([2]; sparging with oxygen at various percentages of dissolved O2): showed protection against fragmentation

The next lines start with results.

- solubility (physchem; pH 7, aqueous buffer): > 100 mM
- solubility (physchem; water): ≥ 1000 mM
Structure (SMILES): CCOC(=O)[C@@H](N)CSSC[C@H](N)C(=O)OCC [CDEE, L-cystine diethyl ester]

- concentration dissolved in buffer [1]: ≥ 5000 µM
Structure (SMILES): COC(=O)[C@@H](N)CSSC[C@H](N)C(=O)OC [CDME, L-cystine dimethyl ester]
- time up to which the antibody was protected from reduction ([2]; 1 mM CDME with nitrogen): up to 20 hours
- time up to which the antibody was protected from reduction ([2]; 2 mM CDME with nitrogen): ≤ 45 h
- fragmentation with air overlay plus CDME versus air alone ([2]; ~1 mM CDME with air overlay, up to 72 hours): lowered the fragmentation further
- fragmentation compared to no additive control (humanized FOLR1 IgG1): much lower fragmentations

- concentration dissolved in buffer [1]: less than 5 mM
Structure (SMILES): Cl.Cl.N[C@@H](CSSC[C@H](N)C(=O)O)C(=O)O [L-cystine dihydrochloride, reference compound]

- solubility (physchem; water): ~0.5 mM (≈ 0.12 mg/mL)
Structure (SMILES): N[C@@H](CSSC[C@H](N)C(=O)O)C(=O)O [L-cystine, reference compound]
